# Reference: patent US20240226072A1 (Stichting Het Nederlands Kanker Instituut, priority 2022, published 2024)
# What was measured:
# in vivo [1] = conditions: male, mouse, po, 25 mg/kg, Tmax
# Procedure: (§1) The Jevtana (10 mg/mL) solution contains 0.26 mg/mL polysorbate 80 and 15% (w/v) ethanol, and is adjusted to pH 2-6 with citric acid. […] The stock solution was further diluted 5-fold with water to reach a 2.5 mg/mL dosing solution for oral administration. The vehicle solution only consists of polysorbate 80, ethanol and water (1:1:8, v/v/v). […] All dosing solutions were prepared freshly on the day of the experiment.
# (§2) At the termination time point of 24 hours, mice were anesthetized using an isoflurane evaporator with 3% isoflurane with 0.8 L/min air and 0.3 L/min oxygen. A final blood sample was taken using cardiac puncture, using Eppendorf tubes previously prepared with heparin as an anticoagulant. Subsequently, the anesthetized mice were sacrificed by cervical dislocation and the tissues of interest were collected. Brain, liver, spleen, kidney, small intestine, and testis were collected. The small intestinal content (SIC) was separately collected by removing this from the small intestinal tissue, which was subsequently rinsed with saline to remove possibly fecal residue. The blood samples were centrifuged at 9,000×g for 6 minutes at 4° C., and the plasma fraction was isolated and stored at −30° C. until analysis. Brain, liver, spleen, kidney, small intestinal tissue, SIC, and testis were homogenized in a FastPrep-24™ 5G homogenizer (M. P. Biomedicals, Santa Ana, CA, USA) for 1 min with 1, 3, 1, 2, 3, 2, and 1 mL of 2% (w/v) BSA in Milli-Q water, respectively. Until analysis of the samples, they were all stored at −30° C.
# (§3) Pharmacokinetic parameters were estimated by non-compartmental analysis using the software package of PK solutions 2.0.2 (SUMMIT, Research Service). The area under the curve (AUC) of the plasma-concentration time curve for all the compounds was calculated using the linear trapezoidal rule without extrapolating to infinity. The peak plasma concentration (Cmax) and the time to reach peak plasma concentration (Tmax) were obtained directly from the individual raw data. For the statistical analysis and the graphs GraphPad Prism 9 (GraphPad Software Inc., La Jolla, CA, USA) was used. The statistics for the comparison of multiple groups were calculated with the one-way analysis of variance (ANOVA), whereas Sidak's post hoc correction was performed. Log-transformation before statistical analysis was applied, when variances within the groups were not homogeneously distributed. Differences were considered statistically significant when P<0.05. All data are presented as geometric mean±SD.
# The last parameter is in many cases the most useful, as it takes the overall exposure into account.
# [2] = Plasma pharmacokinetics and tissue distribution 2 h after oral cabazitaxel 10 mg/kg with vehicle or 25 mg/kg ritonavir in wild-type, Oatp1a/1b−/−, Oatp1a/1b/2b1−/−, OATP1B1- and OATP1B3-transgenic mice; assay type: in vivo; conditions: ritonavir 25 mg/kg oral, cabazitaxel 10 mg/kg oral; for CLiver / Cbrain / Pbrain, brain accumulation per h / SIC (% of dose), small intestinal content: 2 h; for AUC(0-t) / Cmax / Tmax: male, FVB, mouse, plasma, po, 25 mg/kg; for AUC(0-t): AUC0-[…]
# Procedure: All animals were fasted 2 to 3 hours prior to the start of the experiment to minimize variation in absorption after oral administration. […] Subsequently, cardiac puncture was performed with a heparinized needle and syringe collecting a final blood sample. […] All samples were stored at −30° C. until analysis.
# Differences were considered statistically significant when P<0.05. All data are presented as geometric mean±SD.
# in vivo [3] = conditions: male, mouse, po; for AUC(0-t): AUC0-24 h
# Procedure: as §1, §2, §3
# [4] = input of human simulation, cited from earlier work
smiles,measurement,setting,value
CC(C)c1nc(CN(C)C(=O)N[C@H](C(=O)N[C@@H](Cc2ccccc2)C[C@H](O)[C@H](Cc2ccccc2)NC(=O)OCc2cncs2)C(C)C)cs1 [ritonavir],Tmax,in vivo [1]; Cyp3a−/− (FVB background),2.33 ± 0.82 h
same,Tmax,in vivo [1]; wild-type FVB,2 h
same,CLiver,[2]; OATP1B1-transgenic mice,42478 ± 7201 pmol/g
same,Cbrain,[2]; OATP1B1-transgenic mice,277 ± 96.0 pmol/g
same,"Pbrain, brain accumulation per h",[2]; OATP1B1-transgenic mice,0.012 ± 0.002 h⁻¹
same,"SIC (% of dose), small intestinal content",[2]; OATP1B1-transgenic mice,5.81 ± 3.14 % of dose
same,CLiver,[2]; OATP1B3-transgenic mice,45512 ± 4650 pmol/g
same,Cbrain,[2]; OATP1B3-transgenic mice,249 ± 47.9 pmol/g
same,"Pbrain, brain accumulation per h",[2]; OATP1B3-transgenic mice,0.013 ± 0.005 h⁻¹
same,"SIC (% of dose), small intestinal content",[2]; OATP1B3-transgenic mice,4.44 ± 2.65 % of dose
same,CLiver,[2]; Oatp1a/1b/2b1−/− mice,38153 ± 8561 pmol/g
same,Cbrain,[2]; Oatp1a/1b/2b1−/− mice,236 ± 82.5 pmol/g
same,"Pbrain, brain accumulation per h",[2]; Oatp1a/1b/2b1−/− mice,0.014 ± 0.003 h⁻¹
same,"SIC (% of dose), small intestinal content",[2]; Oatp1a/1b/2b1−/− mice,6.03 ± 3.23 % of dose
same,CLiver,[2]; Oatp1a/1b−/− mice,43800 ± 5797 pmol/g
same,Cbrain,[2]; Oatp1a/1b−/− mice,306 ± 45.5 pmol/g
same,"Pbrain, brain accumulation per h",[2]; Oatp1a/1b−/− mice,0.014 ± 0.003 h⁻¹
same,"SIC (% of dose), small intestinal content",[2]; Oatp1a/1b−/− mice,3.84 ± 2.08 % of dose
same,AUC(0-t),[2]; OATP1B1-transgenic mice,14.3 ± 2.02 µM·h
same,AUC(0-t),[2]; OATP1B3-transgenic mice,14.8 ± 1.22 µM·h
same,AUC(0-t),[2]; Oatp1a/1b/2b1−/− mice,13.1 ± 2.14 µM·h
same,AUC(0-t),[2]; Oatp1a/1b−/− mice,16.9 ± 3.95 µM·h
same,AUC(0-t),[2]; wild-type mice,5.96 ± 1.15 µM·h
same,Cmax,[2]; OATP1B1-transgenic mice,8.35 ± 1.3 µM
same,Tmax,[2]; OATP1B1-transgenic mice,1.17 h
same,Cmax,[2]; OATP1B3-transgenic mice,8.67 ± 1.15 µM
same,Tmax,[2]; OATP1B3-transgenic mice,1.33 h
same,Cmax,[2]; Oatp1a/1b/2b1−/− mice,7.74 ± 1.12 µM
same,Tmax,[2]; Oatp1a/1b/2b1−/− mice,1 h
same,Cmax,[2]; Oatp1a/1b−/− mice,11.2 ± 5.21 µM
same,Tmax,[2]; Oatp1a/1b−/− mice,1.21 h
same,Cmax,[2]; wild-type mice,3.62 ± 0.765 µM
same,Tmax,[2]; wild-type mice,0.667 h
same,CLiver,[2]; wild-type mice,44998 ± 6028 pmol/g
same,"Pbrain, brain accumulation per h",[2]; wild-type mice,0.010 ± 0.002 h⁻¹
same,"SIC (% of dose), small intestinal content",[2]; wild-type mice,3.90 ± 2.22 % of dose
same,AUC(0-t),"in vivo [3]; Cyp3aXAV (human CYP3A in Cyp3a−/−, FVB background), 1 mg/kg",0.000447 ± 0.000766 µM·h
same,AUC(0-t),"in vivo [3]; FVB (wild-type), 1 mg/kg",0.00591 ± 0.0018 µM·h
same,Cmax,"in vivo [3]; FVB, Cyp3aXAV, 1 mg/kg",0.000532 ± 0.00108 µM
same,Tmax,"in vivo [3]; FVB, Cyp3aXAV, 1 mg/kg",1.38 ± 3.25 h
same,AUC(0-t),"in vivo [3]; FVB, Cyp3aXAV, 10 mg/kg",0.075 ± 0.0188 µM·h
same,Cmax,"in vivo [3]; FVB, Cyp3aXAV, 10 mg/kg",0.0829 ± 0.0159 µM
same,Tmax,"in vivo [3]; FVB, Cyp3aXAV, 10 mg/kg",0.25 h
same,Cmax,"in vivo [3]; FVB, wild-type, 1 mg/kg",0.00576 ± 0.00138 µM
same,Tmax,"in vivo [3]; FVB, wild-type, 1 mg/kg",0.33 ± 0.13 h
same,AUC(0-t),"in vivo [3]; FVB, wild-type, 10 mg/kg",1.44 ± 0.529 µM·h
same,Cmax,"in vivo [3]; FVB, wild-type, 10 mg/kg",0.749 ± 0.322 µM
same,Tmax,"in vivo [3]; FVB, wild-type, 10 mg/kg",0.92 ± 0.2 h
same,IIV CL,[4],46.7 CV%
same,CL,[4]; source (18),7.72 L/h
same,IIV CV,[4]; source (18),12.8 CV%
same,IIV F,[4]; source (18),52.2 CV%
same,IIV Vc,[4]; source (18),93.5 CV%
same,IOV CV,[4]; source (18),22.2 CV%
same,IOV MAT,[4]; source (18),32.1 CV%
same,MAT,[4]; source (18),8.45 h
same,Q,[4]; source (18),3.99 L/h
same,V,[4]; source (18),23 L
same,Vp,[4]; source (18),17.9 L
